According to patent publication US10538521B2, “Pyrimidine derivative having antimalarial activity” (CARNA BIOSCIENCES, INC., priority 2016, dated 2020):
Where two headings read alike, the source gives them in different places.

What was measured:
[1] = tested on: K1 strain, a drug resistant strain of Plasmodium falciparum; experiment: In vitro antimalarial assay (p-LDH, Malstat), K1 strain; assay type: cell-based; settings: read-out: Antimalarial activity (IC50 value), Strain K1
How it was run: (§1)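 P. falciparum FCR3 and K1 cultured in human erythrocytes (RPMI 1640, 10% human plasma; 2% hematocrit, 0.5 or 1% parasitaemia) with compound at 12.5 to 0.0001 μM final for 72 h at 37° C (3% O2-4% CO2-93% N2). Growth read as p-LDH activity (Malstat/NBT-PES, A655 nm) after freeze-thaw; IC50 from concentration-response curve.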

[2] = tested on: FCR3 strain, a drug sensitive strain of Plasmodium falciparum; experiment: In vitro antimalarial assay (p-LDH, Malstat), FCR3 strain; assay type: cell-based; settings: read-out: Antimalarial activity (IC50 value), Strain FCR3
How it was run: as §1

[3] = P. falciparum K1 (drug resistant), 72 h culture, p-LDH readout
[4] = P. falciparum FCR3 (drug sensitive), 72 h culture, p-LDH readout

IC50 [1, 3] [nM]	IC50 [2, 4] [nM]	Structure (SMILES)	IC50 ([1]; K1, 72 h) [nM]	IC50 ([2]; FCR3, 72 h) [nM]
< 100	< 100	Cc1cc(C)nc(Nc2nc(Nc3ccn4ccnc4c3)cc(N3CCC(N(C)C)C3)n2)c1 (centres unmarked) [Example 137, 6-(3-(dimethylamino)pyrrolidin-1-yl)-N2-(4,6-dimethylpyridin-2-yl)-N4-(imidazo[1,2-a]pyridin-7-yl)pyrimidine-2,4-diamine]		
100 to 1000	100 to 1000	c1cc(Nc2nc(Nc3ccn4ccnc4c3)cc(N3CCCCC3)n2)nc(C2CC2)c1 [Example 96, N2-(6-cyclopropylpyridin-2-yl)-N4-(imidazo[1,2-a]pyridin-7-yl)-6-(piperidin-1-yl)pyrimidine-2,4-diamine]		
< 100	< 100	Cc1ccnc(Nc2nc(N)cc(Nc3ccn4ccnc4c3)n2)c1 [Example 50, N4-(imidazo[1,2-a]pyridin-7-yl)-N2-(4-methylpyridin-2-yl) pyrimidine-2,4,6-triamine]		
< 100	< 100	Cc1ccc(Nc2nc(Nc3ccn4ccnc4c3)cc(N3CCOCC3)n2)cn1 [Example 60, N4-(imidazo[1,2-a]pyridin-7-yl)-N2-(6-methylpyridin-3-yl)-6-morpholinopyrimidine-2,4-diamine]		
< 100	< 100	CCCCc1cccc(Nc2nc(Nc3ccn4ccnc4c3)cc(N3CC(C)(C)C3)n2)n1 [Example 180, N2-(6-butylpyridin-2-yl)-6-(3,3-dimethylazetidin-1-yl)-N4-(imidazo[1,2-a]pyridin-7-yl) pyrimidine-2,4-diamine]		
100 to 1000	100 to 1000	COc1ccnc(Nc2nc(Nc3ccn4ccnc4c3)cc(N3CCC(C)(C)C3)n2)c1 [Example 209, 6-(3,3-dimethylpyrrolidin-1-yl)-N4-(imidazo[1,2-a]pyridin-7-yl)-N2-(4-methoxypyridin-2-yl) pyrimidine-2,4-diamine]		

More lines, now with the values behind:

Structure (SMILES)	IC50 [1, 3] [nM]	IC50 [2, 4] [nM]	IC50 ([1]; K1, 72 h) [nM]	IC50 ([2]; FCR3, 72 h) [nM]
Cc1cc(C)nc(Nc2nc(Nc3ccn4ccnc4c3)cc(NN3CCCC3)n2)c1 [Example 206, N2-(4,6-dimethylpyridin-2-yl)-N4-(imidazo[1,2-a]pyridin-7-yl)-N6-(pyrrolidin-1-yl)pyrimidine-2,4,6-triamine]	< 100	< 100		
Cc1nc(Nc2nc(Nc3ccn4ccnc4c3)cc(N3CCOCC3)n2)cc(C2CC2)c1F [Example 53, N2-(4-Cyclopropyl-5-fluoro-6-methylpyridin-2-yl)-N4-(imidazo [1,2-a]pyridin-7-yl)-6-morpholinopyrimidine-2,4-diamine]	100 to 1000	100 to 1000		
c1cc(CCN2CCCC2)nc(Nc2nc(Nc3ccn4ccnc4c3)cc(N3CCCC3)n2)c1 [Example 163, N4-(imidazo[1,2-a]pyridin-7-yl)-6-(pyrrolidin-1-yl)-N2-{6-[2-(pyrrolidin-1-yl)ethyl]pyridin-2-yl}pyrimidine-2,4-diamine triformate]			100 to 1000	< 100
FC(F)(F)COc1ccc(Nc2nc(Nc3ccn4ccnc4c3)cc(N3CCOCC3)n2)cn1 [Example 77, N4-(imidazo[1,2-a]pyridin-7-yl)-6-morpholino-N2-(6-(2,2,2-trifluoroethoxy)pyridin-3-yl) pyrimidine-2,4-diamine]	100 to 1000	< 100		
CCc1ccnc(Nc2nc(Nc3ccn4ccnc4c3)cc(N3CCOCCOCCOCC3)n2)c1 [Example 120, N2-(4-ethylpyridin-2-yl)-N4-(imidazo[1,2-a]pyridin-7-yl)-6-(1,4,7-trioxa-10-azacyclododecan-10-yl)pyrimidine-2,4-diamine]	1000 to 10000	1000 to 10000		
COc1cncc(Nc2nc(Nc3ccn4ccnc4c3)cc(N3CCOCC3)n2)c1 [Example 19, N4-(Imidazo[1,2-a]pyridin-7-yl)-N2-(5-methoxypyridin-3-yl)-6-morpholinopyrimidine-2,4-diamine]	100 to 1000	100 to 1000		
Cc1cc(C)nc(Nc2nc(Nc3ccn4ccnc4c3)cc(Nn3cccc3)n2)c1 [Example 200, N2-(4,6-dimethylpyridin-2-yl)-N4-(imidazo[1,2-a]pyridin-7-yl)-N6-(1H-pyrrol-1-yl)pyrimidine-2,4,6-triamine]	100 to 1000	100 to 1000		
